Assays:
CYP2C9 [1] = target: T1, CYP2C9 (Homo sapiens, UniProt P11712); assay: Ratio of Kinact to Ki(app) for mechanism-based inhibition of recombinant human CYP2C9 expressed in microsomes isolated from Saccharomyces cerevisiae AH22 cells assessed as diclofenac 4'-hydroxylation preincubated for 5 to 10 mins followed by substrate addition measured after 15 mins by HPLC analysis; assay type: ADME, cell-based; settings: probe diclofenac (4'-hydroxylation)
Cytochrome P450 3A4 = Cytochrome P450 3A4 (Homo sapiens, UniProt P08684); assay: Activity of recombinant human CYP3A4 expressed in Saccharomyces cerevisiae AH22 cells assessed as enzyme-mediated catecholization at 2 to 75 uM after 15 mins by HPLC analysis in presence of NADPH; assay type: ADME, cell-based; settings: ah22, 0.25 h
Cytochrome P450 2D6 = Cytochrome P450 2D6 (Homo sapiens, UniProt P10635); assay: Activity of recombinant human CYP2D6 expressed in Saccharomyces cerevisiae AH22 cells assessed as enzyme-mediated catecholization at 2 to 75 uM after 15 mins by HPLC analysis in presence of NADPH; assay type: ADME, cell-based; settings: ah22, 0.25 h
Cytochrome P450 2E1 = Cytochrome P450 2E1 (Homo sapiens, UniProt P05181); assay: Activity of recombinant human CYP2E1 expressed in Saccharomyces cerevisiae AH22 cells assessed as enzyme-mediated catecholization at 2 to 75 uM after 15 mins by HPLC analysis in presence of NADPH; assay type: ADME, cell-based; settings: ah22, 0.25 h
Cytochrome P450 1A2 [2] = target: T2, Cytochrome P450 1A2 (Homo sapiens, UniProt P05177); assay: Activity of recombinant human CYP1A2 expressed in Saccharomyces cerevisiae AH22 cells assessed as enzyme-mediated (R)-episesamin monocatechol formation at 2 to 75 uM after 15 mins by HPLC analysis in presence of NADPH; assay type: ADME, cell-based; settings: ah22, 0.25 h
T2 sequence (P05177 whole entry): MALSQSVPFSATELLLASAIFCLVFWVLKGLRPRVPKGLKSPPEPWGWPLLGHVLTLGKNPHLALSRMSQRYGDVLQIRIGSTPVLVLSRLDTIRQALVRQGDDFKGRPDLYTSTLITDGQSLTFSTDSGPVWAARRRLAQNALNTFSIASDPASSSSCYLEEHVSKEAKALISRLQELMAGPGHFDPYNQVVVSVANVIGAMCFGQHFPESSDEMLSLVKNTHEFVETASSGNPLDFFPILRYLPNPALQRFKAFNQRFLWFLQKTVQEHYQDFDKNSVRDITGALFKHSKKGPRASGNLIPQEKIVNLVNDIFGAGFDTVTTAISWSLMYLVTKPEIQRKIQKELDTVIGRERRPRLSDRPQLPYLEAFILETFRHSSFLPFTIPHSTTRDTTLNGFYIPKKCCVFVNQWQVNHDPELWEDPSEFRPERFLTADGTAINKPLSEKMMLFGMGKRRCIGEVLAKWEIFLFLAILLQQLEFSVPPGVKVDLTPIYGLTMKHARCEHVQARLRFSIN

Cytochrome P450 2C9 [3] = target: T3, Cytochrome P450 2C9 (Homo sapiens, UniProt P11712); assay: Activity of recombinant human CYP2C9 expressed in Saccharomyces cerevisiae AH22 cells assessed as enzyme-mediated (S)-episesamin monocatechol formation at 2 to 75 uM after 15 mins by HPLC analysis in presence of NADPH; assay type: ADME, cell-based; settings: ah22, 0.25 h
Cytochrome P450 2C9 [4] = target: T3, Cytochrome P450 2C9; assay: Activity of recombinant human CYP2C9 expressed in Saccharomyces cerevisiae AH22 cells assessed as enzyme-mediated (R)-episesamin monocatechol formation at 2 to 75 uM after 15 mins by HPLC analysis in presence of NADPH; assay type: ADME, cell-based; settings: ah22, 0.25 h
Cytochrome P450 2C19 [5] = target: T4, Cytochrome P450 2C19 (Homo sapiens, UniProt P33261); assay: Activity of recombinant human CYP2C19 expressed in Saccharomyces cerevisiae AH22 cells assessed as enzyme-mediated (R)-episesamin monocatechol formation at 2 to 75 uM after 15 mins by HPLC analysis in presence of NADPH; assay type: ADME, cell-based; settings: ah22, 0.25 h
Cytochrome P450 2C19 [6] = target: T4, Cytochrome P450 2C19; assay: Activity of recombinant human CYP2C19 expressed in Saccharomyces cerevisiae AH22 cells assessed as enzyme-mediated (S)-episesamin monocatechol formation at 2 to 75 uM after 15 mins by HPLC analysis in presence of NADPH; assay type: ADME, cell-based; settings: ah22, 0.25 h
Cytochrome P450 1A2 [7] = target: T2, Cytochrome P450 1A2; assay: Activity of recombinant human CYP1A2 expressed in Saccharomyces cerevisiae AH22 cells assessed as enzyme-mediated episesamin dicatechol formation at 2 to 75 uM after 15 mins by HPLC analysis in presence of NADPH; assay type: ADME, cell-based; settings: ah22, 0.25 h
Cytochrome P450 2C9 [8] = target: T3, Cytochrome P450 2C9; assay: Activity of recombinant human CYP2C9 expressed in Saccharomyces cerevisiae AH22 cells assessed as enzyme-mediated episesamin dicatechol formation at 2 to 75 uM after 15 mins by HPLC analysis in presence of NADPH; assay type: ADME, cell-based; settings: ah22, 0.25 h
Cytochrome P450 2C19 [9] = target: T4, Cytochrome P450 2C19; assay: Activity of recombinant human CYP2C19 expressed in Saccharomyces cerevisiae AH22 cells assessed as enzyme-mediated episesamin dicatechol formation at 2 to 75 uM after 15 mins by HPLC analysis in presence of NADPH; assay type: ADME, cell-based; settings: ah22, 0.25 h
Liver microsome [10] = assay: Drug metabolism in human liver microsomes assessed as (S)-episesamin monocatechol formation at 5 uM after 30 mins by HPLC analysis in presence of NADPH; assay type: ADME; settings: 0.5 h
Liver microsome [11] = assay: Drug metabolism in human liver microsomes assessed as (R)-episesamin monocatechol formation at 5 uM after 30 mins by HPLC analysis in presence of NADPH; assay type: ADME; settings: 0.5 h
Liver microsome [12] = assay: Drug metabolism in human liver microsomes assessed as episesamin dicatechol formation at 2 to 75 uM after 15 mins by HPLC analysis in presence of NADPH; assay type: ADME; settings: 0.25 h
Liver microsome [13] = assay: Drug metabolism in human liver microsomes assessed as (S)-episesamin monocatechol formation at 2 to 75 uM after 15 mins by HPLC analysis in presence of NADPH; assay type: ADME; settings: 0.25 h
Liver microsome [14] = assay: Drug metabolism in human liver microsomes assessed as (R)-episesamin monocatechol formation at 2 to 75 uM after 15 mins by HPLC analysis in presence of NADPH; assay type: ADME; settings: 0.25 h
Liver microsome [15] = assay: Drug metabolism in heat-inactivated human liver microsomes assessed as episesamin dicatechol formation at 2 to 75 uM after 15 mins by HPLC analysis in presence of NADPH; assay type: ADME; settings: 0.25 h
Liver microsome [16] = assay: Drug metabolism in human liver microsomes assessed as (S)-episesamin monocatechol formation at 5 uM after 15 mins by HPLC analysis in presence of NADPH and anti-CYP2C9 antibody; assay type: ADME; settings: 0.25 h
Liver microsome [17] = assay: Drug metabolism in human liver microsomes assessed as (S)-episesamin monocatechol formation at 5 uM after 15 mins by HPLC analysis in presence of NADPH and anti-CYP1A2 antibody; assay type: ADME; settings: 0.25 h
Liver microsome [18] = assay: Drug metabolism in human liver microsomes assessed as (R)-episesamin monocatechol formation at 5 uM after 15 mins by HPLC analysis in presence of NADPH and anti-CYP1A2 antibody; assay type: ADME; settings: 0.25 h
Liver microsome [19] = assay: Drug metabolism in human liver microsomes assessed as (R)-episesamin monocatechol formation at 5 uM after 15 mins by HPLC analysis in presence of NADPH and anti-CYP2C9 antibody; assay type: ADME; settings: 0.25 h
Liver microsome [20] = assay: Drug metabolism in human liver microsomes assessed as episesamin monocatecholization at 5 uM after 15 mins by HPLC analysis in presence of NADPH and CYP2C9 inhibitor sulfaphenazole; assay type: ADME; settings: 0.25 h
Liver microsome [21] = assay: Drug metabolism in human liver microsomes assessed as episesamin monocatecholization at 5 uM after 15 mins by HPLC analysis in presence of NADPH and CYP2C19 inhibitor (+)-N-3-benzylnirvanol; assay type: ADME; settings: 0.25 h
CYP2C9 [22] = target: T1, CYP2C9; assay: (§1) Mechanism-based inhibition of recombinant human CYP2C9 expressed in microsomes isolated from Saccharomyces cerevisiae AH22 cells assessed as diclofenac 4'-hydroxylation preincubated for 5 to 10 mins followed by substrate addition measured after 15 mins by HPLC analysis; assay type: ADME, cell-based; settings: human, probe diclofenac (4'-hydroxylation)
Cytochrome P450 2C9 [23] = target: T3, Cytochrome P450 2C9; assay: as §1; assay type: ADME, cell-based
Cytochrome P450 2C9 [24] = target: T3, Cytochrome P450 2C9; assay: Mechanism-based inhibition of recombinant human CYP2C9 expressed in microsomes isolated from Saccharomyces cerevisiae AH22 cells assessed as diclofenac 4'-hydroxylation up to 50 uM preincubated for 5 to 10 mins followed by substrate addition measured by HPLC analysis; assay type: ADME, cell-based
CYP450 [25] = assay: Drug metabolism in human liver microsomes assessed as CYP450-mediated catecholization after 10 to 30 mins by HPLC analysis in presence of NADPH; assay type: ADME
[26] = Drug metabolism in human liver microsomes assessed as CYP450-mediated catecholization per mg of protein after 10 to 30 mins by HPLC analysis in presence of NADPH; assay type: ADME
CYP450 [27] = assay: Drug metabolism in Sprague-Dawley rat liver microsomes assessed as CYP450-mediated catecholization after 10 to 30 mins by HPLC analysis in presence of NADPH; assay type: ADME
[28] = Drug metabolism in Sprague-Dawley rat liver microsomes assessed as CYP450-mediated catecholization per mg of protein after 10 to 30 mins by HPLC analysis in presence of NADPH; assay type: ADME
Cytochrome P450 2C19 [29] = target: T4, Cytochrome P450 2C19; assay: Activity of recombinant human CYP2C19 expressed in Saccharomyces cerevisiae AH22 cells assessed as enzyme-mediated sesamin dicatechol/monocatechol formation at 2 to 20 uM after 15 mins by HPLC analysis in presence of NADPH; assay type: ADME, cell-based; settings: ah22, 0.25 h
Liver microsome [30] = assay: Drug metabolism in human liver microsomes assessed as sesamin monocatechol formation after 30 mins by HPLC analysis in presence of NADPH; assay type: ADME; settings: 0.5 h

T1 sequence (P11712 whole entry): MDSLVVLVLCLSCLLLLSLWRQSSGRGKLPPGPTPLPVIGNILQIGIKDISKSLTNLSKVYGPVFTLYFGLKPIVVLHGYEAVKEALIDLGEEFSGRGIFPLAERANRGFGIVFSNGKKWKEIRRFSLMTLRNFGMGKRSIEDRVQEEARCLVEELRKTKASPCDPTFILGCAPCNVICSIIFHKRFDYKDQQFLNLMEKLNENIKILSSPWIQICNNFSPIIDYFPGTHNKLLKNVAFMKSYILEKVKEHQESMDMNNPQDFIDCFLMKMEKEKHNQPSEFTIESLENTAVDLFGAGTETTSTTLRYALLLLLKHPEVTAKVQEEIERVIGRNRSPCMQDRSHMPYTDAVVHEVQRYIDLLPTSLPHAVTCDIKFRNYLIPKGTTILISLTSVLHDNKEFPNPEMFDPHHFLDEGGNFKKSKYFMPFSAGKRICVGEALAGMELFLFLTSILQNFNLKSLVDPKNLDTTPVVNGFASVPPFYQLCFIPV
T3 sequence (P11712 whole entry): as above
T4 sequence (P33261 whole entry): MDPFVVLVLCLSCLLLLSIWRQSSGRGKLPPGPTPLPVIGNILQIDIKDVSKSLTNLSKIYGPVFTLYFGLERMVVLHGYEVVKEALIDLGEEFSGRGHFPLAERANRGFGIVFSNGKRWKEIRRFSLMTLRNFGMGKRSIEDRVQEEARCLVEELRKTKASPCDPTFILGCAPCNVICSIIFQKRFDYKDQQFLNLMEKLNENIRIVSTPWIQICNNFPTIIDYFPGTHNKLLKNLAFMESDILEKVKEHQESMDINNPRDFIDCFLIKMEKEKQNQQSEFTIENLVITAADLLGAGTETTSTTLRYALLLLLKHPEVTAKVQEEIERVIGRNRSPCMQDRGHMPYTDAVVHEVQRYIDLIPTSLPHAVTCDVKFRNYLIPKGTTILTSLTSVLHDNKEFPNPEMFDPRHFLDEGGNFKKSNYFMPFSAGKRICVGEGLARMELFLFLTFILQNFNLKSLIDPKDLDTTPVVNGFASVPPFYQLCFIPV
Cytochrome P450 2D6, sequence (P10635 whole entry): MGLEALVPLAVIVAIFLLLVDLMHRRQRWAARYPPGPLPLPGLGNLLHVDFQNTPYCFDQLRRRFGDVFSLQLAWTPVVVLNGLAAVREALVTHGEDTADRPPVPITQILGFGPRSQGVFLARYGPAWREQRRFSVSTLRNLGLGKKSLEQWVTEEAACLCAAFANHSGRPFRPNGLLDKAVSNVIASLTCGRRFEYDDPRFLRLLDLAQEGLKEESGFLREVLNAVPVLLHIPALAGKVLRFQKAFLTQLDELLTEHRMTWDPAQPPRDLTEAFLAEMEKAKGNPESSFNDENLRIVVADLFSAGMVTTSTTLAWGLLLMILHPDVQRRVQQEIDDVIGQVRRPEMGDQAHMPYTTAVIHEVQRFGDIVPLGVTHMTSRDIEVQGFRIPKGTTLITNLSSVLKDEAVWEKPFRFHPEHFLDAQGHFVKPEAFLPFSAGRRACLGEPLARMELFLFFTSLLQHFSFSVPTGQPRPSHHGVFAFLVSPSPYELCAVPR
Cytochrome P450 3A4, sequence (P08684 whole entry): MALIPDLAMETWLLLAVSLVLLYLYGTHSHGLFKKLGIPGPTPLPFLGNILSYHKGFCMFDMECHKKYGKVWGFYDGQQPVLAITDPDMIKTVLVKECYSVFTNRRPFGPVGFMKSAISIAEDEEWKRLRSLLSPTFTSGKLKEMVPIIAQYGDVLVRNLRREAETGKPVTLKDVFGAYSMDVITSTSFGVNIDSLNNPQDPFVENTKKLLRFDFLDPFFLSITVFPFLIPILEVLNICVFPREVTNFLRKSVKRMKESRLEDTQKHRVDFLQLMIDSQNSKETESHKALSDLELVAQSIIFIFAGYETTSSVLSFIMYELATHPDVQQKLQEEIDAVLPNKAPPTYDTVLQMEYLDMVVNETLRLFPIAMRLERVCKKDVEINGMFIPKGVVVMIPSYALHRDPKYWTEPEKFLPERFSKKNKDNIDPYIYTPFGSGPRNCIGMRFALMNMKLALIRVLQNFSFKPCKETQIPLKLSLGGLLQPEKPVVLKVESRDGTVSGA
Cytochrome P450 2E1, sequence (P05181 whole entry): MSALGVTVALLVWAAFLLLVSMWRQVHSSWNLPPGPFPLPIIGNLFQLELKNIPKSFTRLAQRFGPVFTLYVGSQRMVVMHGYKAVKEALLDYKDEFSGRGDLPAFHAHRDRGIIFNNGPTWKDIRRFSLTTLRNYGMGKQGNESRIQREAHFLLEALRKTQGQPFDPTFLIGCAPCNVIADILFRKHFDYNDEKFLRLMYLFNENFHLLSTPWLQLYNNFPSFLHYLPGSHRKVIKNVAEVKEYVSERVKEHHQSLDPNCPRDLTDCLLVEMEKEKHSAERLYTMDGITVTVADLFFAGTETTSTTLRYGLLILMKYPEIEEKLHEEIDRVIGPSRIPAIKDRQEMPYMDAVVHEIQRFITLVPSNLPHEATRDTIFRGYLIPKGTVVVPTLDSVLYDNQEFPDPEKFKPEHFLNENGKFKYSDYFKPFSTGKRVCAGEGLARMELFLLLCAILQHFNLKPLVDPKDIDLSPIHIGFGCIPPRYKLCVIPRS

Structure (SMILES): c1cc2c(cc1[C@H]1OC[C@H]3[C@@H]1CO[C@H]3c1ccc3c(c1)OCO3)OCO2 [ASARININ]
- kinact/KI at 0.25 h (CYP2C9 [1]): 417 M⁻¹ s⁻¹
- Drug metabolism (Cytochrome P450 3A4): metabolite_not_detected
- Drug metabolism (Cytochrome P450 2D6): metabolite_not_detected
- Drug metabolism (Cytochrome P450 2E1): metabolite_not_detected
- Drug metabolism (Cytochrome P450 1A2 [2]): metabolite_detected
- Drug metabolism (Cytochrome P450 2C9 [3]): metabolite_detected
- Drug metabolism (Cytochrome P450 2C9 [4]): metabolite_detected
- Drug metabolism (Cytochrome P450 2C19 [5]): metabolite_detected
- Drug metabolism (Cytochrome P450 2C19 [6]): metabolite_detected
- Drug metabolism (Cytochrome P450 1A2 [7]): metabolite_not_detected
- Drug metabolism (Cytochrome P450 2C9 [8]): metabolite_not_detected
- Drug metabolism (Cytochrome P450 2C19 [9]): metabolite_detected
- Drug metabolism (Liver microsome [10]): metabolite_detected
- Drug metabolism (Liver microsome [11]): metabolite_detected
- Drug metabolism (Liver microsome [12]): metabolite_detected
- Drug metabolism (Liver microsome [13]): metabolite_detected
- Drug metabolism (Liver microsome [14]): metabolite_detected
- Drug metabolism (Liver microsome [15]): metabolite_not_detected
- Drug metabolism (Liver microsome [16]): metabolite_not_detected
- Drug metabolism (Liver microsome [17]): metabolite_detected
- Drug metabolism (Liver microsome [18]): metabolite_not_detected
- Drug metabolism (Liver microsome [19]): metabolite_not_detected
- Drug metabolism (Liver microsome [20]): metabolite_not_detected
- Drug metabolism (Liver microsome [21]): metabolite_detected
- kinact at 0.25 h (CYP2C9 [22]): 0.00283 s⁻¹
- inhibition (INH) (Cytochrome P450 2C9 [23]; human, microsomes, 0.25 h): Dose-dependent effect
- Ki (Cytochrome P450 2C9 [23]; read-out: Ki(app)): 6.8 µM
- inhibition (INH) (Cytochrome P450 2C9 [24]): Dose-dependent effect
- Km (CYP450 [25]): 13 µM
- Vmax [26]: 0.4 nmol/min/mg
- Km (CYP450 [27]): 16 µM
- Vmax [28]: 6.3 nmol/min/mg

Structure (SMILES): c1cc2c(cc1[C@H]1OC[C@H]3[C@@H]1CO[C@@H]3c1ccc3c(c1)OCO3)OCO2 [SESAMIN]
- kinact/KI at 0.25 h (CYP2C9 [1]): 2330 M⁻¹ s⁻¹
- Drug metabolism (Cytochrome P450 2C19 [29]): metabolite_detected
- Drug metabolism (Liver microsome [30]): metabolite_detected
- Km (CYP450 [25]): 7.7 µM
- Vmax [26]: 0.81 nmol/min/mg
- Km (CYP450 [27]): 7.1 µM
- Vmax [28]: 4.8 nmol/min/mg

— ChEMBL document CHEMBL3525932, “Comparison of metabolism of sesamin and episesamin by drug-metabolizing enzymes in human liver” (Drug Metab Dispos, 2012)
